Test results: patent publication US4117122A, “11-Aminoalkylmorphanthridin-11-ols” (Richardson-Merrell Inc., priority 1976, dated 1978)

Tests used:
[1] = tested on: reserpine-induced depression; test: antagonism of reserpine-induced depression in mice (standard antidepressant test); format: in vivo; settings: for antidepressant potency relative to imipramine: compared with imipramine; for antagonism of reserpine-induced depression: mice, intraperitoneal doses of 5 to 30 mg/kg
From the text: (§1) The compounds of the present invention are unique in pharmacologic activity.

[2] = From the text: as §1
[3] = oral LD50 in standard animal tests; format: in vivo; settings: for LD50: in vivo, standard animal tests, approximately
From the text: as §1

Structure (SMILES) | antidepressant potency relative to imipramine [1] | antagonism of reserpine-induced depression [1] | anticholinergic activity [2] | oral LD50 compared with imipramine [3] | LD50 [3]
CN(C)CCCC1(O)c2ccccc2C=Nc2ccccc21 (stereo not shown) [11-(3-Dimethylaminopropyl)morphanthridin-11-ol] | at least ten times more potent than that of imipramine | antagonize reserpine-induced depression in mice | no significant anticholinergic activity | substantially greater than that of imipramine | ~130 mg/kg
CN(C)CCCC1(O)c2ccccc2CNc2ccc(Cl)cc21 (stereo not shown) [2-Chloro-11-(3-dimethylaminopropyl)-5,6-dihydromorphanthridin-11-ol] | at least ten times more potent than that of imipramine | antagonize reserpine-induced depression in mice | no significant anticholinergic activity | substantially greater than that of imipramine | ~175 mg/kg
